The values that follow are results of earlier work, collected in patent US20220364053A1, “HUMAN CELLULAR MODEL FOR INVESTIGATING CORTICO-STRIATAL-MIDBRAIN NEURAL PATHWAYS” (The Board of Trustees of the Leland Stanford Junior …, priority 2019, published 2022).

pEC50, pIC50, pKd: −log10 of the molar value.

Usually pKd stands for the Kd on a negative log10 scale, so that one unit is a factor of ten. As usually defined, the pIC50 is the IC50 on a negative log10 scale, so that one unit is a factor of ten. Usually pEC50 stands for the EC50 on a negative log10 scale, so that one unit is a factor of ten.

One data set concerns the target Smo heptahelical domain (Homo sapiens, UniProt Q99835).
Data set [1] addresses element-binding protein (CBP) (Homo sapiens, UniProt Q92793). Conditions: read-out: IC50, binds to element-binding protein (CBP).
Data set [2] has as its target Wnt3A-mediated activation of a multimerized TCF-binding site driving luciferase. Particulars: HEK293 cells.
Data set [3] has as its system Wnt processing and secretion. Conditions: cell-free assay; read-out: IC50, inhibitor of Wnt processing and secretion.
Data set [4] concerns Wnt-stimulated cellular responses.
Another data set has as its target T1, TNKS2 (Homo sapiens, UniProt Q9H2K2).
T1 sequence (Q9H2K2 1-1166): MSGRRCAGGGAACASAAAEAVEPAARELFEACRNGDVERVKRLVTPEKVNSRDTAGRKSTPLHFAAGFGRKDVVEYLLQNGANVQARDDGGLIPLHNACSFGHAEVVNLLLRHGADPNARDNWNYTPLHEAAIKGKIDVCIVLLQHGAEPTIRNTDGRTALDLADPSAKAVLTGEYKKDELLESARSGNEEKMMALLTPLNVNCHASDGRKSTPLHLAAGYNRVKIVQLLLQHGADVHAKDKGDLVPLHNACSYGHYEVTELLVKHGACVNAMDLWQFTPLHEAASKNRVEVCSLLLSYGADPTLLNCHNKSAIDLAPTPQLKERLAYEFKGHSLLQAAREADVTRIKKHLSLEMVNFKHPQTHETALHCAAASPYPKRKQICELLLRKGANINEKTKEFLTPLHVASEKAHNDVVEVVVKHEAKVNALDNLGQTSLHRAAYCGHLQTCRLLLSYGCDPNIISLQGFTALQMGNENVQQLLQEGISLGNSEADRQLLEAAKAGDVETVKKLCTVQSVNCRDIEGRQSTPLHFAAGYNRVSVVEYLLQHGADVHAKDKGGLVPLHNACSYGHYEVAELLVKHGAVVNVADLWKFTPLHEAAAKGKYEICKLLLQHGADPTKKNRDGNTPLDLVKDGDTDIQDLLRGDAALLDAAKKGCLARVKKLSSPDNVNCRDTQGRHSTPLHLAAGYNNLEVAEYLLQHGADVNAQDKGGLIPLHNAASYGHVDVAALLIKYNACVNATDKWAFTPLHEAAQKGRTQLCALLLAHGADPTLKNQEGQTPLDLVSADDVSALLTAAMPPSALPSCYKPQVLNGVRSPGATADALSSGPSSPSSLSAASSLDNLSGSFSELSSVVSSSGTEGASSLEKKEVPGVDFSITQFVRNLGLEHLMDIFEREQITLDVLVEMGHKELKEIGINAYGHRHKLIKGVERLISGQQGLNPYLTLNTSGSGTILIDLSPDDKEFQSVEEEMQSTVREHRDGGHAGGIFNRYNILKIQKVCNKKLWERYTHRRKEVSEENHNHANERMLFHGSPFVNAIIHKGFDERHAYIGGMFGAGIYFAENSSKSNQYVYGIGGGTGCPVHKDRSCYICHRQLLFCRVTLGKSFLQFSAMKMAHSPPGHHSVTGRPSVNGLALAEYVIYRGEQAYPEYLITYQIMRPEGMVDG

The target of another data set is T2, Porcn (Homo sapiens, UniProt Q9H237).
T2 sequence (Q9H237 1-461): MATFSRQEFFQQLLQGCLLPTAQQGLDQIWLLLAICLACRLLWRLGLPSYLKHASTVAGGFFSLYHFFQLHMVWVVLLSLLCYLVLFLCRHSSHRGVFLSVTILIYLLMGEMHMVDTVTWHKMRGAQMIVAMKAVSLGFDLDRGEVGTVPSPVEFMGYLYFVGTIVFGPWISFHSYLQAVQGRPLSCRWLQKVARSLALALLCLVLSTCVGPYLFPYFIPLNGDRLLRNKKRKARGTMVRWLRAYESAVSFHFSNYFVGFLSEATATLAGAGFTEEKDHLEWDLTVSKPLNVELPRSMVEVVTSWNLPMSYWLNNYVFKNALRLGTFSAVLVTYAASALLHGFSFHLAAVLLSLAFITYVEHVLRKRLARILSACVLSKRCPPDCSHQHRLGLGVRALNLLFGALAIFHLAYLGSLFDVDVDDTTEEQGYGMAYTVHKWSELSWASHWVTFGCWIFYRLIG
Particulars: read-out: EC50, Porcn inhibitor.

The next data set concerns Wnt signaling. Particulars: TM3 cells; read-out: IC50, inhibits Wnt signaling.

Smo heptahelical domain, sequence (Q99835 28-787): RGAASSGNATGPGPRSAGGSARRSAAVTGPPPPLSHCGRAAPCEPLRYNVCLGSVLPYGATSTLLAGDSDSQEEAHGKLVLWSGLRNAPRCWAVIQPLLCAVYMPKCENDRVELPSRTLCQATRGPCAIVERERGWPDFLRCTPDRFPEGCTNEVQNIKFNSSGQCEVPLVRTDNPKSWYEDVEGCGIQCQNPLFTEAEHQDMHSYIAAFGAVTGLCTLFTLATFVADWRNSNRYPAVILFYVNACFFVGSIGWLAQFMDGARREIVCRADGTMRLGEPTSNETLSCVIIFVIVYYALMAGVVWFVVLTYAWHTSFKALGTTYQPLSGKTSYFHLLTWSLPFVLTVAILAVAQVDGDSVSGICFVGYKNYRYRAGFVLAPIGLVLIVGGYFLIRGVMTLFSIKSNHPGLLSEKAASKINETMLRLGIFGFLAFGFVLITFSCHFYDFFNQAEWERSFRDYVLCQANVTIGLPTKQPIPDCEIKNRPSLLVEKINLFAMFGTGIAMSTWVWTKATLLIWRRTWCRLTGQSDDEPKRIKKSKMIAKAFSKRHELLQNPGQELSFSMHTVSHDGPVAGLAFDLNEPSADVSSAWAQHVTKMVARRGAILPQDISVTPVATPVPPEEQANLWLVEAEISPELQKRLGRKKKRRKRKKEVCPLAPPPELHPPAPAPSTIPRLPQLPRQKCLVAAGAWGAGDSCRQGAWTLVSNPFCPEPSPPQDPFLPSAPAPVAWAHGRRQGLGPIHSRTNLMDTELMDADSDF
element-binding protein (CBP), sequence (Q92793 whole entry): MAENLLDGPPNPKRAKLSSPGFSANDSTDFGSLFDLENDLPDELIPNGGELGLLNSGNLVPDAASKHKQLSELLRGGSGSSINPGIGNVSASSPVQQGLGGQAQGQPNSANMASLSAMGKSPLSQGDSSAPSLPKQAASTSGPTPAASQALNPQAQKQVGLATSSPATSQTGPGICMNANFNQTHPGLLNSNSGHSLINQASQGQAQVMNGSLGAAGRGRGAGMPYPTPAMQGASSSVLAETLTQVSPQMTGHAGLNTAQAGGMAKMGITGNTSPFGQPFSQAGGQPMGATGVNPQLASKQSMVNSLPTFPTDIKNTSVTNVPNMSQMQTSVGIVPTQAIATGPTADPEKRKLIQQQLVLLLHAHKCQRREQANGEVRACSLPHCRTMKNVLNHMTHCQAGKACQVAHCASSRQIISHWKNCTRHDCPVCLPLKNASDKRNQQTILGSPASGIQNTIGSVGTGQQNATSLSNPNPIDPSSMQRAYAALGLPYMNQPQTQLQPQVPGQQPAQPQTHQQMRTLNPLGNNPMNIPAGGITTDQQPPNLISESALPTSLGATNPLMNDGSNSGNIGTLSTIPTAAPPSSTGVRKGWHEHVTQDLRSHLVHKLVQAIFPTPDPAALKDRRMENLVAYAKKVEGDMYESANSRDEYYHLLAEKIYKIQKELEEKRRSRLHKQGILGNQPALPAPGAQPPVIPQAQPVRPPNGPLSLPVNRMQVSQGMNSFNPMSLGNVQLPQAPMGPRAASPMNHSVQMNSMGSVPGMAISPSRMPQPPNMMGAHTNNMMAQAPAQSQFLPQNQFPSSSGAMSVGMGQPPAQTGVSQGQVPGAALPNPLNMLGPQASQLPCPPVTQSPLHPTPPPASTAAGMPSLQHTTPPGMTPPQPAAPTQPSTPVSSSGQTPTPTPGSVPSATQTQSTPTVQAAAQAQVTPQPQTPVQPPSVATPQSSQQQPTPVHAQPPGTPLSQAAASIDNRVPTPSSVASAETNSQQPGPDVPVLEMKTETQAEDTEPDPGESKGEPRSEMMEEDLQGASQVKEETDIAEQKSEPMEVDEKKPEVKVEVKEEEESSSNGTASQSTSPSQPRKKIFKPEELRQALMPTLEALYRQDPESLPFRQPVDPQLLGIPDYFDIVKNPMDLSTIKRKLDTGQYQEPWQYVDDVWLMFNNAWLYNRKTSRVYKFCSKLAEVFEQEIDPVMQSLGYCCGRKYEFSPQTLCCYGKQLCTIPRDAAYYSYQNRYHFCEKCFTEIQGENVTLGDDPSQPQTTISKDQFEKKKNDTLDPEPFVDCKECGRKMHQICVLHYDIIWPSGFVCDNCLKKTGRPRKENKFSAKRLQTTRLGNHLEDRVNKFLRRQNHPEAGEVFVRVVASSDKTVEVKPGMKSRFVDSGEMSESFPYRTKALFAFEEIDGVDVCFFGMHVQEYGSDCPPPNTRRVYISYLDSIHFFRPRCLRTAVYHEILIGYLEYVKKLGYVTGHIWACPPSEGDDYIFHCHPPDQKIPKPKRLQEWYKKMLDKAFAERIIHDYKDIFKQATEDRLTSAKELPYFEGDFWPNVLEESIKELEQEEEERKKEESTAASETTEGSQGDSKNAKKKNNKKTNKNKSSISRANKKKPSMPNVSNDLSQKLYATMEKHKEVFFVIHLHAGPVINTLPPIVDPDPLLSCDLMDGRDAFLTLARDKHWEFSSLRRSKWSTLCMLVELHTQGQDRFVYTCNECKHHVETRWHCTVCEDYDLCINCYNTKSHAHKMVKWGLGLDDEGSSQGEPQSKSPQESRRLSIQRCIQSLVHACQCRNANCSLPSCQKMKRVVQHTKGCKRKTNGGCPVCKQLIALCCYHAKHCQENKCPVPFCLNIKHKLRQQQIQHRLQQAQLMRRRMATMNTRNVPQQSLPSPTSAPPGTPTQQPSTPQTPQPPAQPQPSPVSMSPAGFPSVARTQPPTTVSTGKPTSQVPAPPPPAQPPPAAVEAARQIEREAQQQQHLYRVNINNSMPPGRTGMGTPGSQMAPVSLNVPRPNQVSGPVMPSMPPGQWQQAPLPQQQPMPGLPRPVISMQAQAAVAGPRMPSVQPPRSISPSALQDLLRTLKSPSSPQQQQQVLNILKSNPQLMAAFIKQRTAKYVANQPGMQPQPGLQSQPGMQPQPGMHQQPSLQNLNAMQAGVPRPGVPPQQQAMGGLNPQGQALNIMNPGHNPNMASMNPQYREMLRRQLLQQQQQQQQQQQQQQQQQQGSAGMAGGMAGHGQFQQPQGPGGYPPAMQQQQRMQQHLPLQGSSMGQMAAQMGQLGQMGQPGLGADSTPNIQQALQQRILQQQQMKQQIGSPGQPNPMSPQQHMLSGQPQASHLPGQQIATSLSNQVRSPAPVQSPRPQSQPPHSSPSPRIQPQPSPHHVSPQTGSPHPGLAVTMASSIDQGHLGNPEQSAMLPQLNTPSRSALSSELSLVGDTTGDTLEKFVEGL

In the case of `CNC1CCC(N(Cc2cccc(-c3ccncc3)c2)C(=O)c2sc3ccccc3c2Cl)CC1` (centres unmarked) [SAG], the negative-log Kd (pKd) at Smo heptahelical domain was 7.23.

As to `O=C1[C@H](Cc2ccc(O)cc2)N2C(=O)CCN(C(=O)NCc3ccccc3)[C@H]2CN1Cc1cccc2ccccc12` [ICG-001], the pIC50 in data set [1] was 5.52. `Cc1cc(-c2ccc(CC(=O)Nc3ccc(-c4cccnc4)cc3)cc2)ccn1` [Wnt-C59]: the pIC50 in data set [2] is 4.13.

Regarding `Cc1ccc2nc(NC(=O)CSc3nc4c(c(=O)n3-c3ccccc3)SCC4)sc2c1` [IWP-2], the pIC50 in data set [3] was 7.57. In addition, the “effect against Wnt-stimulated cellular responses” value in data set [4] was “no effect”. Consider `COc1ccc(-n2c(SCCCN3C(=O)c4cccc5cccc(c45)C3=O)nnc2-c2ccncc2)cc1` [WIKI4], for which the negative logarithm of the IC50 (pIC50) on TNKS2 is 7.82.

In the case of `O=C(CSc1nc2c(c(=O)n1-c1ccccc1)SCC2)Nc1ccc(-c2ccccc2)cn1` [IWP-L6], at Porcn, the negative-log EC50 (pEC50) was 9.30.

For the molecule `Cc1cc(-c2ncc(CC(=O)Nc3ccc(-c4cnccn4)cn3)cc2C)ccn1` [LGK-974], the pIC50 in the data set on Wnt signaling was 9.40.
